One assay concerns healthy donor CD3+ cells. Briefly: Intracellular IFNγ staining of peptide stimulated CD3+ cultures. Particulars: after three stimulations, CD4 or CD8 co-staining. The class given is cell-based, human. Here is the method: For detection of IFNγ, Brefeldin A was added to T cells 12 hours prior to intracellular staining, to a final concentration of […]. Effector cells were washed with PBS and stained with CD8-PE or CD4-PE antibody for 30 minutes at room temperature. Stained cells were then washed twice with HBSS, and resuspended in the residual volume. 100 μl of fixation solution (Caltag Laboratories, UK) was added to each tube and samples incubated for 15 minutes at room temperature. Cells were then washed with cold HBSS, 1% FBS 0.1% sodium azide and resuspended in the residual volume. 100 μl of permeabilisation medium (Caltag Laboratories) and 5 μl of IFNγ-FITC was added to each tube, and incubated for 20 mins at room temperature. Finally, cells were washed and resuspended in 300-500 μl HBSS ready for FACS analysis. All antibodies and isotype controls were purchased from (Becton Dickinson, Oxford, UK) except HLA-A2 (from Serotec).
After 24 hours in maturation cytokines, DCs were incubated with peptide (50 μg/ml) for 4 hours. PBMCs or CD3^+ cells from healthy donors or patients with solid tumours were seeded into a 12-well plate, in X-VIVO 15 at a density of 2×10^6/ml. […] Culture supernatants were analysed for IFNγ content by ELISA. After the 2-3 week culture period, stimulated effector cells were washed and analysed by pentamer staining, intracellular cytokine staining or ELISPOT assays.

For a further assay, the system named is AML patient CD8+ T cells. Briefly: Pentamer staining, AML patient CD3+ T cells stimulated with peptide loaded T2 cells. The class given is cell-based, human. Particulars: for P14 pentamer positive cells of the CD8+ cells: after P14 peptide stimulation. How it is done:
(§1) Assessment of peptide specific T cells was carried out by staining 10^6 effector cells with 10 μl of PE labeled, HLA-A*0201 pentamers (custom made by Proimmune) for 10 minutes, at room temperature, in the dark. Cells were then washed and co-stained with CD8-FITC for 20 minutes at room temperature. The lymphocyte gate was selected according to FSSCH/SSCH and 50,000 events acquired. Staining with control pentamers was carried out for each sample.
(§2) After 24 hours in maturation cytokines, DCs were incubated with peptide (50 μg/ml) for 4 hours. PBMCs or CD3^+ cells from healthy donors or patients with solid tumours were seeded into a 12-well plate, in X-VIVO 15 at a density of 2×10^6/ml. Peptide pulsed, monocyte derived DCs were washed and prepared at 2×10^5/ml. PBMC cultures received peptide pulsed DCs at a stimulator:effector ratio of […], or in the case of unstimulated controls, medium only. IL-7 was added to cultures at a final concentration of 10 U/ml on day 3. Cultures were restimulated by addition of peptide pulsed DCs on, day 7, and in some cases day 14, together with IL-7 and IL-2 (both at 10 U/ml). 200 μl of culture supernatants were collected at various intervals throughout the culture period and replaced with fresh medium. In the case of AML patient cultures, T2 cells were pulsed with peptide and used as stimulators in the same way as autologous DCs described above. Culture supernatants were analysed for IFNγ content by ELISA. After the 2-3 week culture period, stimulated effector cells were washed and analysed by pentamer staining, intracellular cytokine staining or ELISPOT assays.
The T2 line was first examined for immune stimulatory molecules by FACS analysis. […] T2 cells were cultured in serum free conditions to reduce the non-human antigens present in the FCS. T2 cells were incubated with peptide for 4 hours, washed and irradiated and seeded in 96 well plates. Purified T cells (Miltenyi) from patients were added and IFNγ secretion or the expansion of CD8^+ epitope specific T cells measured using pentamers.
Prior to each restimulation, cells were resuspended and aliquots taken for pentamer staining.

Assay [1] relates to solid tumour patient CD8+ T cells. Briefly: Pentamer staining, solid tumour patient CD3+ T cells stimulated with peptide loaded autologous DCs. The format is cell-based, human. Here is the method: as §1, §2
There have been no reports of PASD1 expression in primary head and neck, prostate or colon cancer primary cells to date, but the head and neck cancer cell line Hn5^19, the lung cancer line H1299^19 and the colon cancer cell line SW480^24 are PASD1 positive. This raises the possibility that some solid cancer patients may be able to raise a response to the PASD1 peptides. Cells used in these experiments were isolated from leukophoresis samples taken several months after the cessation of treatment. Negatively purified CD3^+ T cells were stimulated with autologous monocyte derived DCs as described previously. Pentamer analysis was carried out after each stimulation.

The next assay deals with healthy donor T cells. Briefly: IFNγ ELISA of healthy donor T cells stimulated with peptide loaded autologous DCs. The format is cell-based, human. Here is the method:
PBMCs were prepared from healthy donor buffy coats as described above. Monocytes were obtained from newly sourced buffy coats, or cells thawed at 10^6/ml in warm X-VIVO medium, 1% human AB serum and plated in 90 mm TC dishes. Plates were incubated at 37° C. for at least 4 hours and non adherent cells removed by gently washing with media or HBSS or CD14^+ cells were positively selected as described. The remaining T cell enriched cells were cryopreserved for use as effectors in later assays. The CD14^+ fraction/adherent cells were cultured in IL-4 (1000 IU/ml) and GM-CSF (800 U/ml) for 5 days to induce differentiation to a dendritic cell (DC) phenotype. On day 3 fresh IL-4 and GM-CSF were added. On day 5 TNFα (10 ng/ml), IL-6 (1000 U/ml) and IL-1β (10 ng/ml) all from R&D systems UK and PGE2 (1 μg/ml) (from Sigma, UK) were added to plates. On day 6 DCs were harvested from plates and washed with HBSS to remove residual cytokines before use in immunological experiments. Analysis of DC phenotype was carried out by flow cytometry.
IL-2 and IFNγ levels were determined with Duo set ELISA Development System (R&D Systems), according to the manufacturer's instructions. Supernatants were collected at various time points (days 3, 7, 10 and 14) in order to detect peak cytokine levels.
as §2
A general note: ELISA stands for enzyme-linked immunosorbent assay.

For another assay, the system named is HHD mice. Briefly: Mouse IFNγ-ELISpot after pDOM-epitope DNA vaccination. Particulars: mouse, in vivo.

“Also recorded” adds a separate entry of the source.

Experimental for HHD mice: HHD mice at 6 to 10 weeks of age were injected intramuscularly (i.m.) into both quadriceps with a total of 50 μg DNA in saline solution on day 0. Unless stated otherwise mice were boosted with the same DNA vaccine delivered with in vivo electroporation on day 28 as previously described^5.
Vaccine-specific IFNγ secretion by lymphocytes from individual mice was assessed ex vivo (BD ELISpot Set, BD PharMingen, San Diego, Calif.) on day 14 or 36, as described previously with some modifications^11. Briefly, viable lymphocytes were selected from splenocyte preparations by density centrifugation. […] Data are expressed as the frequency of spot-forming cells (SFCs) per million lymphocytes. For analysis of peptide-specific T-cell sensitivity, splenic lymphocytes from immunized mice were incubated with a range of PASD1 peptide concentrations and the frequency of specific cells assessed by ELISpot analysis as described. The number of SFC/million cells at the peptide concentration inducing the greatest response was assigned a value of 100%. For each peptide concentration tested the % maximal response was then calculated by the formula: (experimental SFCs per million cells/maximal SFCs per million cells)×100% for each individual animal.

As for “P14: modified PASD1 peptide, SEQ ID NO 21, derivative of wild type peptide P8 (RLWQELSDI; Synthetic sequence amino acid sequence p14)”, in the assay on healthy donor CD3+ cells, the “Phenotype of the IFNγ secreting cells” value is listed as “IFNγ secreting cells were CD8+”. Besides, the Pentamer positive cells result in the assay with AML patient CD8+ T cells (AML Patient 3 (remission) and Patient 4 (non remission), after three stimulations) was “no pentamer positive cells were detected”; in assay [1] (prostate cancer patient, up to four stimulations), “No pentamer positive cells were detected”. For the same substance, the “P14 pentamer positive cells of the CD8+ cells” value in the assay with AML patient CD8+ T cells (AML Patient I) was 0.5%; in the assay with AML patient CD8+ T cells (AML Patient II), 0.09%. Moreover, the “Pentamer positive cells, frequency of the CD8+ T cells” value in the assay on AML patient CD8+ T cells (AML patients, absence of peptide stimulation) is “not detectable above background levels; also recorded: undetectable”. Further, the “Pentamer positive cells, frequency of the CD8+ cells” value in the assay with AML patient CD8+ T cells (AML patients, after two rounds of ex vivo stimulation) was 0.02%. Further, the “P14 pentamer positive cells, frequency of the CD8+ T cell population” value in assay [1] (colon cancer patient, fourth stimulation) is 13.6%. Besides, the “P14 pentamer positive cells, frequency of CD8+ cells” value in assay [1] (colon cancer patient, stimulation with DCs alone, corrected for control pentamer) is recorded as 0.09%. In assay [1] (colon cancer patient, three rounds of P14 peptide stimulation), the “P14 pentamer positive cells, frequency of CD8+ T cells” value worked out at 0.11%. Moreover, the “Pentamer positive cells, frequency of CD8+ cells” value in assay [1] (head and neck patient, absence of peptide stimulation) came to 0.02%. Further, the “Pentamer positive cells, frequency of the CD8+ population” value in assay [1] (head and neck patient, after peptide stimulation (P15: three rounds)) was “not expanded”. Moreover, the “Secretion of IFNγ in cultures of CD4+ depleted effector cells” value with healthy donor T cells (CD4+ depleted effector cells) is “almost completely abolished”. In addition, in the assay with healthy donor T cells (modified peptides P11-P16, six normal donors), the “IFNγ production from normal donor T cells” value is listed as “highest levels”. For the same substance, the “IFNγ secretion (ELISpot) against the peptide of the immunisation” value in the assay with HHD mice is given as “leads to an IFNγ response”.

The values above are taken from US20110212116A1, “IMMUNOGENIC PEPTIDES AND USES THEREOF” (Cancer Research Technology Limited, priority 2008, published 2011).
